The values below come from US9809563B2 (GIFU University, priority 2014, dated 2017).

What is called IC50 is the concentration that gives 50% inhibition.

SMILES strings stand for the structures. Structures can show the parent of a compound that is named as a salt.

This assay deals with abnormal prion protein (Mus musculus, UniProt P04925). Description: cell-based.
abnormal prion protein, sequence (P04925 23-230 limits assumed): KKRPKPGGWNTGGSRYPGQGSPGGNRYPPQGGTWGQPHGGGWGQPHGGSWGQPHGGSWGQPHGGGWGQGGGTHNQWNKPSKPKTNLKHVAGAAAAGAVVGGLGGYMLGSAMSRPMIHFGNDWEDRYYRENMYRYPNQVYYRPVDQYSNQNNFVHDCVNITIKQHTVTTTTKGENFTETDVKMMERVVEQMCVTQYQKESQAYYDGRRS

In the case of `O=C(CN1CCCC1)Nc1ccc(C(c2ccc(NC(=O)CN3CCCC3)cc2)C2CCCCC2)cc1` [maleic acid salt, N,N′-[(cyclohexylmethylene)di-4,1-phenylene]bis[2-(1-pyrrolidinyl)acetamide] maleate], half-maximal inhibition (IC50) required 460 ± 200 nM.
